What was measured:
Assay type in all cases: cell-based
[1] = system: Influenza A virus (IAV, Puerto Rico/8/1934(H1N1)); assay: Antiviral assay, IAV viral RNA in supernatant by RT-qPCR, Vero E6 cells; conditions: for IC50: read-out: IC50, antiviral activity against IAV
[2] = system: Calu-3 cells; assay: Drug-induced cytotoxicity, CCK-8, Calu-3 cells; conditions: 24 h
Method: (§1) The drug-induced cytotoxicity of the test drugs (tyrphostin-AG-1478 and brefeldin-a) on Calu-3 and Vero E6 cells was determined by a cell counting kit 8 (CCK-8, APExBIO). Cells were cultured overnight in 96-well cell-culture Petri dishes at a density of 1 × 10^4 cells/well. A 10 mM stock of drug was serially diluted in 100% DMSO to obtain a 10-point dilution series. Plates were cultured with fresh drug-containing medium at 37°C for 24 h. The DMSO concentration remained constant under all conditions at 0.05%. The absorbance of each well was determined by using a 96-well multiscanner. After subtracting background absorption, the results were expressed as a percentage of viability relative to that of control cultures that received no drug. Drug concentrations that inhibited cell viability by 50% (IC50) were determined by using GraphPad Prism 8 software.

[3] = system: Vero E6 cells; assay: Drug-induced cytotoxicity, CCK-8, Vero E6 cells; conditions: 24 h
Method: as §1

[4] = system: Influenza A virus (IAV, Puerto Rico/8/1934(H1N1)); assay: Antiviral assay, IAV viral RNA in supernatant by RT-qPCR, Calu-3 cells; conditions: for IC50: read-out: IC50, antiviral activity against IAV
[5] = system: mRNA levels of MX1, ISG15, IFNB1, ACE2; assay: Cellular mRNA levels by qPCR in IAV-infected Calu-3 cells; conditions: IAV-infected Calu-3 cells (MOI of 1), 0 to 10 μM

| SMILES | IAV viral RNA levels in cell culture supernatant [1] | IC50 ([1]; Influenza A virus, H1N1 / PR8, Vero C1008) | cytotoxicity (cell viability) [2] | cytotoxicity (cell viability) [3] | IAV viral RNA levels in cell culture supernatant [4] | IC50 ([4]; Influenza A virus, H1N1 / PR8, Calu-3) | ACE2 mRNA level [5] | IFNβ (IFNB1) mRNA level [5] | ISG15 mRNA level [5] | MX1 mRNA level [5] | IC50 [1] | IC50 [4] |
| --- | --- | --- | --- | --- | --- | --- | --- | --- | --- | --- | --- | --- |
| C[C@H]1CCC/C=C/[C@@H]2C[C@H](O)C[C@H]2[C@H](O)/C=C/C(=O)O1 [Brefeldin-a] | reduced IAV viral RNA levels dose dependently | 246 nM | Neither compound caused significant cytotoxicity | slightly reduced viability | reduced IAV viral RNA levels dose dependently | 59 nM | significantly reduced | significantly reduced | significantly reduced | significantly reduced |  |  |
| COc1cc2ncnc(Nc3cccc(Cl)c3)c2cc1OC [Tyrphostin-AG-1478] | reduced IAV viral RNA levels dose dependently |  | Neither compound caused significant cytotoxicity | Neither compound caused significant cytotoxicity | reduced IAV viral RNA levels dose dependently |  | increased | elevated | elevated | elevated | 53 nM | 43 nM |

Reference: publication PMC7724679, “Identification of Repurposable Drugs and Adverse Drug Reactions for Various Courses of COVID-19 Based on Single-Cell RNA Sequencing Data” (ArXiv, 2020)
